Results as given in publication PMC4467398, “Preclinical antitumor activity of ST7612AA1: a new oral thiol-based histone deacetylase (HDAC) inhibitor” (Oncotarget, 2014).

System: DOHH2 and TMD8 DLBCL cells
Assay: Gene expression profiling (HumanHT-12 v4 BeadChip, limma), ST7612AA1 300 nM 8 hrs vs DMSO
Type: cell-based, human

## CC(=O)SCCCCC[C@H](NC(=O)[C@H]1CCC(=O)N1)C(=O)Nc1ccccc1 [ST7612AA1]
300 nM 8 hrs
  AveExpr.ST7612 TANK (probe ILMN_1715069): 8.21E-01
  AveExpr.ST7612 TBC1D7 (probe ILMN_1661622): 7.33E-01
  AveExpr.ST7612 TBC1D16 (probe ILMN_1758457): 7.24E-01
  AveExpr.ST7612 TCEA2 (probe ILMN_1665526): 8.50E-01
  AveExpr.ST7612 TCEAL3 (probe ILMN_1734190): 7.88E-01
  AveExpr.ST7612 TCTN1 (probe ILMN_1685124): 7.81E-01
  AveExpr.ST7612 TESK2 (probe ILMN_1654370): 8.37E-01
  AveExpr.ST7612 TMEM14A (probe ILMN_1785191): 7.29E-01
  AveExpr.ST7612 TMEM49 (probe ILMN_1692754): 8.49E-01
  AveExpr.ST7612 TMEM154 (probe ILMN_2088124): 6.89E-01
  AveExpr.ST7612 TMOD2 (probe ILMN_3250273): 7.57E-01
  AveExpr.ST7612 TPRG1L (probe ILMN_1727479): 7.86E-01
  AveExpr.ST7612 TPST1 (probe ILMN_1651950): 7.51E-01
  AveExpr.ST7612 TPST2 (probe ILMN_1695432): 7.18E-01
  AveExpr.ST7612 TRAFD1 (probe ILMN_1758250): 8.52E-01
  AveExpr.ST7612 UBE2A (probe ILMN_2307455): 7.18E-01
  AveExpr.ST7612 UBTD1 (probe ILMN_1794914): 8.56E-01
  AveExpr.ST7612 UCP2 (probe ILMN_1685625): 7.30E-01
  AveExpr.ST7612 UNC84A (probe ILMN_1772316): 7.21E-01
  AveExpr.ST7612 UPLP (probe ILMN_3236765): 7.46E-01
  AveExpr.ST7612 VASH2 (probe ILMN_1692698): 7.31E-01
  AveExpr.ST7612 VPS8 (probe ILMN_1678268): 7.47E-01
  AveExpr.ST7612 WDR19 (probe ILMN_1655117): 7.77E-01
  AveExpr.ST7612 YPEL5 (probe ILMN_1711069): 6.99E-01
  AveExpr.ST7612 ZDHHC8 (probe ILMN_1789492): 8.85E-01
  AveExpr.ST7612 ZNF775 (probe ILMN_1691702): 7.39E-01
300 nM 8 hrs vs DMSO
  log ratio 1999-08-31 (probe ILMN_1659953): 8.50E-01
  log ratio (probe ILMN_1816244): 7.08E-01
  log ratio (probe ILMN_1827736): 8.76E-01
  log ratio (probe ILMN_1909886): 7.98E-01
  log ratio AACS (ILMN_1698554): 6.24E-01
  log ratio ABCA7 (probe ILMN_1743205): 7.64E-01
  log ratio ABCC4 (ILMN_1788457): -8.19E-01
  log ratio ABCC4 (ILMN_2194009): -8.58E-01
  log ratio ABCE1 (ILMN_2330267): -7.82E-01
  log ratio ACAT2 (ILMN_1708672): -1.01E+00
  log ratio ACOT7 (ILMN_2332250): 6.55E-01
  log ratio ACSL3 (ILMN_2360705): 5.95E-01
  log ratio ACSL5 (ILMN_1705247): -1.24E+00
  log ratio ACSL5 (ILMN_2370882): -9.69E-01
  log ratio ADARB1 (probe ILMN_1679797): 7.60E-01
  log ratio ADD3 (ILMN_1787378): 6.27E-01
  log ratio ADD3 (ILMN_1814526): 6.45E-01
  log ratio ADD3 (ILMN_2311278): 6.14E-01
  log ratio ADIPOR2 (ILMN_2224833): 6.41E-01
  log ratio ADNP2 (ILMN_2080751): 6.66E-01
  log ratio ADRBK1 (ILMN_3307926): -6.13E-01
  log ratio ADSS (ILMN_2092664): -8.15E-01
  log ratio AFMID (ILMN_1707551): 6.36E-01
  log ratio AGTPBP1 (ILMN_1718071): 6.75E-01
  log ratio AKAP8 (ILMN_1741572): -8.28E-01
  log ratio AKAP13 (ILMN_2396956): 6.04E-01
  log ratio ALDH2 (probe ILMN_1793859): 8.03E-01
  log ratio ALDH3A2 (ILMN_1794825): 6.08E-01
  log ratio ALG14 (ILMN_2191822): -6.09E-01
  log ratio ALOX5 (probe ILMN_1680996): 8.46E-01
  log ratio ALS2 (ILMN_1750256): 6.20E-01
  log ratio AMOT (probe ILMN_1792409): 7.65E-01
  log ratio AMZ2 (ILMN_1801606): 6.00E-01
  log ratio ANAPC13 (ILMN_1793894): -1.08E+00
  log ratio ANKLE1 (ILMN_3243457): -8.03E-01
  log ratio ANKMY2 (ILMN_1784292): 5.99E-01
  log ratio ANKRD6 (ILMN_2178587): 6.74E-01
  log ratio ANKRD41 (ILMN_2091590): -9.47E-01
  log ratio ANP32B (ILMN_1684293): -9.66E-01
  log ratio APAF1 (probe ILMN_1659463): 8.78E-01
  log ratio APLP1 (probe ILMN_1763834): 8.17E-01
  log ratio APLP2 (ILMN_1710482): 5.98E-01
  log ratio ARFIP1 (ILMN_2403906): 5.95E-01
  log ratio ARG2 (ILMN_1800898): 6.68E-01
  log ratio ARID2 (ILMN_2182335): -6.15E-01
  log ratio ARL6IP1 (probe ILMN_1708416): 6.93E-01
  log ratio ARSB (ILMN_2242937): -9.59E-01
  log ratio ATG2A (probe ILMN_1756006): 8.92E-01
  log ratio ATP6V0C (ILMN_1789005): 6.37E-01
